Values quoted from earlier work as cited in US6369078B1, “Solenopsin derivatives and analogues as fire ant suppressants” (priority 1999, dated 2002).

Experiments:
[1] = test system: blood and tissue- and fluid-feeding parasites
[2] = as much as 6000 units over a shorter time period
fire ants = conditions: stomach insecticide combined with bait

SMILES	units equivalent to 250 units of the whole body extracts ([1]; synthetic version against whole body extract)	elimination of blood and tissue- and fluid-feeding parasites ([1]; synthetically produced, oral)	ill effects [2]	effectiveness against fire ants (fire ants)
CCCCCCCCCCC[C@H]1CCC[C@H](C)N1 (relative stereo) [Solenopsin A, trans-2-methyl 6-n-undecylpiperidine]	1500 units	complete elimination	did not cause any ill effects	
ClC1(Cl)C2(Cl)C3(Cl)C4(Cl)C(Cl)(Cl)C5(Cl)C3(Cl)C1(Cl)C5(Cl)C24Cl (stereo not shown) [Mirex]				more than 95%
